Reference: PubChem BioAssay (NCI)
“And” between values parts separate entries of the source, which are not always exact repeats. Equal entries are not always repeated.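 1) Cells in 96-well plates. 2) Compound, 48 h, 5 concentrations. 3) Linear interpolation between surrounding doses. 4) Unreached endpoint = highest concentration. GI50 = concentration required for 50% inhibition of growth. TGI: total growth inhibition.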

Tests used:
Test in all cases: growth of human tumour cells (NCI), 48 h
[1] = tested on: 786-0 renal
[2] = tested on: A498 renal
[3] = tested on: A549 NSCLC
[4] = tested on: ACHN renal
[5] = tested on: BT-549 breast
[6] = tested on: CAKI-1 renal
[7] = tested on: CCRF-CEM leukemia
[8] = tested on: COLO 205 colon
[9] = tested on: DU-145 prostate
[10] = tested on: EKVX NSCLC
[11] = tested on: HCC-2998 colon
[12] = tested on: HCT-116 colon
[13] = tested on: HCT-15 colon
[14] = tested on: HL-60(TB) leukemia
[15] = tested on: HOP-62 NSCLC
[16] = tested on: HOP-92 NSCLC
[17] = tested on: HS 578T breast
[18] = tested on: HT29 colon
[19] = tested on: IGROV1 ovarian
[20] = tested on: K-562 leukemia
[21] = tested on: KM12 colon
[22] = tested on: LOX IMVI melanoma
[23] = tested on: M14 melanoma
[24] = tested on: MALME-3M melanoma
[25] = tested on: MCF7 breast
[26] = tested on: MDA-MB-231 breast
[27] = tested on: MDA-MB-435
[28] = tested on: MOLT-4 leukemia
[29] = tested on: NCI-H226 lung
[30] = tested on: NCI-H23 lung
[31] = tested on: NCI-H460 lung
[32] = tested on: NCI-H522 lung
[33] = tested on: NCI/ADR-RES ovarian
[34] = tested on: OVCAR-3 ovarian
[35] = tested on: OVCAR-4 ovarian
[36] = tested on: OVCAR-5 ovarian
[37] = tested on: OVCAR-8 ovarian
[38] = tested on: PC-3 prostate
[39] = tested on: RPMI-8226 leukemia
[40] = tested on: RXF 393 renal
[41] = tested on: SF-268 CNS
[42] = tested on: SF-295 CNS
[43] = tested on: SF-539 CNS
[44] = tested on: SK-MEL-2 melanoma
[45] = tested on: SK-MEL-28 melanoma
[46] = tested on: SK-MEL-5 melanoma
[47] = tested on: SK-OV-3 ovarian
[48] = tested on: SN12C renal
[49] = tested on: SNB-19 CNS
[50] = tested on: SNB-75 CNS
[51] = tested on: SR leukemia
[52] = tested on: SW-620 colon
[53] = tested on: T-47D breast
[54] = tested on: TK-10 renal
[55] = tested on: U251 CNS
[56] = tested on: UACC-257 melanoma
[57] = tested on: UACC-62 melanoma
[58] = tested on: UO-31 renal

For `CCC[C@H](N[C@H]1CCc2cc(F)cc(F)c2C1)C(=O)Nc1cn(C(C)(C)CNCC(C)(C)C)cn1`, the GI50 [1] was 14.2 µM and 32.5 µM, the TGI [1] was 49.8 µM and > 100 µM and the GI50 [2] was 3.85 µM and 19.2 µM. For the same molecule, the TGI [2] was > 48.1 µM and 87.8 µM, the GI50 [3] was 23.1 µM and 21.5 µM and the TGI [3] was greater than 100 µM. For the same molecule, the GI50 [4] was 26.3 µM and 23.2 µM, the TGI [4] was greater than 100 µM and the GI50 [5] was 14.9 µM and 21 µM. For the same molecule, the TGI [5] was 72.2 µM and 86.2 µM, the GI50 [6] was 7.69 µM and 4.75 µM and the TGI [6] was > 47.6 µM and 42.9 µM. For the same molecule, the GI50 [7] was 24.5 µM and 20.7 µM, the TGI [7] was greater than 100 µM and the GI50 [8] was 14 µM and 14.4 µM. For the same molecule, the TGI [8] was 28.6 µM and 29.1 µM, the GI50 [9] was 34.8 µM and 35.9 µM and the TGI [9] was greater than 100 µM. The GI50 [10] was 24.2 µM and 21.3 µM, the TGI [10] was greater than 100 µM and the GI50 [11] was 22.3 µM and 24.9 µM. The TGI [11] was greater than 100 µM, the GI50 [12] was 7.27 µM and 10.9 µM and the TGI [12] was 23.3 µM and 28.6 µM. For the same molecule, the GI50 [13] was 20.1 µM and 16.3 µM, the TGI [13] was greater than 100 µM and the GI50 [14] was 13.9 µM and 22.4 µM. For the same molecule, the TGI [14] was 43.3 µM and > 100 µM, the GI50 [15] was 33.3 µM and 53.3 µM and the TGI [15] was greater than 100 µM. For the same molecule, the GI50 [16] was 5.6 µM and 2.52 µM, the TGI [16] was 40.1 µM and 27.2 µM and the GI50 [17] was 16.3 µM and 13.1 µM. For the same molecule, the TGI [17] was > 100 µM and 93.5 µM, the GI50 [18] was 10.4 µM and 11.9 µM and the TGI [18] was 29.5 µM and 28.8 µM. For the same molecule, the GI50 [19] was 42.6 µM and 31.5 µM, the TGI [19] was greater than 100 µM and the GI50 [20] was 5.6 µM and 12.1 µM. The TGI [20] was greater than 100 µM, the GI50 [21] was 26.9 µM and 27 µM and the TGI [21] was greater than 100 µM. The GI50 [22] was 15.5 µM and 16.1 µM, the TGI [22] was 34.3 µM and 35.9 µM and the GI50 [23] was 13.8 µM and 14.8 µM. For the same molecule, the TGI [23] was 41.2 µM and 46.6 µM, the GI50 [24] was 11 µM and 12.9 µM and the TGI [24] was 28.5 µM and 29.5 µM. The GI50 [25] was 16.3 µM and 11.7 µM, the TGI [25] was > 64.4 µM and 83.7 µM and the GI50 [26] was 15.3 µM and 12.9 µM. For the same molecule, the TGI [26] was 45.3 µM and 41.2 µM, the GI50 [27] was 21.3 µM and 21.5 µM and the TGI [27] was greater than 100 µM. The GI50 [28] was 6.93 µM and 7.84 µM, the TGI [28] was greater than 100 µM and the GI50 [29] was 26.5 µM and 14.1 µM. The TGI [29] was > 100 µM and 92.9 µM, the GI50 [30] was 24.1 µM and 22.4 µM and the TGI [30] was greater than 100 µM. For the same molecule, the GI50 [31] was 25.3 µM and 21.6 µM, the TGI [31] was greater than 100 µM and the GI50 [32] was 23.9 µM and 13.4 µM. For the same molecule, the TGI [32] was > 100 µM and 69.6 µM, the GI50 [33] was 17.2 µM and 20.6 µM and the TGI [33] was greater than 100 µM. For the same molecule, the GI50 [34] was 19.9 µM and 16.6 µM, the TGI [34] was > 100 µM and 77.6 µM and the GI50 [35] was 23.6 µM and 16.1 µM. The TGI [35] was greater than 100 µM, the GI50 [36] was 27 µM and 22.6 µM and the TGI [36] was greater than 100 µM. For the same molecule, the GI50 [37] was 31.7 µM and 26 µM, the TGI [37] was greater than 100 µM and the GI50 [38] was 10.9 µM and 12.4 µM. For the same molecule, the TGI [38] was greater than 100 µM, the GI50 [39] was 9.57 µM and 11 µM and the TGI [39] was 48.8 µM and 69 µM. For the same molecule, the TGI [40] was 39.9 µM and 13.4 µM, the GI50 [41] was 21.8 µM and 16.5 µM and the TGI [41] was greater than 100 µM. The GI50 [42] was 23.6 µM and 18.5 µM, the TGI [42] was greater than 100 µM and the GI50 [43] was 19 µM and 27.8 µM. The TGI [43] was 47.3 µM and > 100 µM, the GI50 [44] was 16.8 µM and 15.1 µM and the TGI [44] was 42 µM and 37.2 µM. The GI50 [45] was 19 µM and 18 µM, the TGI [45] was 52.9 µM and 54.8 µM and the GI50 [46] was 15.2 µM and 13 µM. For the same molecule, the TGI [46] was 29.6 µM and 26.2 µM, the GI50 [47] was 37.2 µM and 40.3 µM and the TGI [47] was greater than 100 µM. The GI50 [48] was 28.6 µM and 17.5 µM, the TGI [48] was greater than 100 µM and the GI50 [49] was 35.2 µM and 29.7 µM. The TGI [49] was greater than 100 µM, the GI50 [50] was 18.2 µM and 13.8 µM and the TGI [50] was greater than 100 µM. For the same molecule, the GI50 [51] was 19.3 µM and 14 µM, the TGI [51] was > 100 µM and 91.1 µM and the GI50 [52] was 23.7 µM and 23.3 µM. The TGI [52] was greater than 100 µM, the GI50 [53] was 9.83 µM and 14.2 µM and the TGI [53] was greater than 100 µM. The GI50 [54] was 25.1 µM and 28.9 µM, the TGI [54] was greater than 100 µM and the GI50 [55] was 17.6 µM and 19.3 µM. For the same molecule, the TGI [55] was greater than 100 µM, the GI50 [56] was 13.7 µM and 12.9 µM and the TGI [56] was 61.9 µM and 40.4 µM. The GI50 [57] was 16.8 µM, the TGI [57] was 45.8 µM and the GI50 [58] was 5.72 µM and 4.1 µM. For the same molecule, the TGI [58] was 30 µM and 27.7 µM.
